The subject of experiment [1] is CHO cells expressing mAb3 and mAb4. The protocol:
In a further set of experiments, choline chloride is added in various concentrations (40; 80; 120; 160, 200; 240; 500; 840; 1000; 3000 und 5000 mg/l in total) to powder growth medium. The media thus obtained are used for producing mAb3 and mAb4, respectively, generally as outlined above.
Normalized antibody concentrations, normalized viable cell densities, and viabilities, for mAb3 and in addition for mAb4 the normalized cell specific productivity for the whole duration of the cultivation (13 resp. 17 days) are further depicted in FIG. 14 to FIG. 24.

The subject of experiment [2] is CHO cells expressing mAb3. Conditions: higher concentrations of choline chloride in production medium vs standard 240 mg/L.
Method: Three aliquots of this parental cell line are transfected to express three different monoclonal antibodies mAb1, mAb2, mAb3, respectively.
All nine shake flasks (three for each experiment) are run under the same conditions, except for the medium. The conditions involve a fed-batch culture with two daily bolus feeds starting at days 3 and 5 with a feeding rate of 2 and 0.4% of the initial culture volume per day; a temperature shift from 36.5° C. to 33° C. at day 5; 10% CO2 in the incubator; a shaking rate of 150 rpm (stroke radius=25 mm). The cell growth/viability of the cells as well as the resulting titer of recombinant antibody expressed are determined.
Where [3] appears, read: choline chloride 3000 mg/l and more.

On to `C[N+](C)(C)CCO.[Cl-]` [choline chloride], for which, in experiment [1] (40 mg/l choline chloride in total, after 13 or 17 days in culture), the “viability and antibody concentration” value is “lowest values”. Also, in experiment [1] (all choline concentrations higher than 40 mg/l), the viability result was “higher”. Also, in experiment [1] (setting [3]), the cell growth entry is listed as “do not grow” and the “viability of the cells” value is reported as “do not negatively affect the viability”. The normalized antibody concentration entry in experiment [1] (choline chloride 3000 mg/l and more, after 13 or 17 days) is “below 1”. In experiment [2], the “cell growth or polypeptide titer” value is reported as “did not result in improved cell growth or polypeptide titer”.

The values above are taken from patent US8986957B2, “Cell culture medium” (Novartis AG, priority 2010, dated 2015).
